In patent publication US20080014149A1, “Methods and Compositions for Imaging and Biomedical Applications” (priority 2004, published 2008):
Like-named read-outs stand apart in the source and are kept apart here. Each block holds one substance with its values, some of them ahead of it.

How the values were obtained:
[1] = Imaging DTT with 19b and 25 in agarose gels (MRI); conditions: 0.5 mM in 2% agarose hydrogels, 50 mM DTT, vials filled with PBS
Description: The T2/T1 quenching detectable constructs 19b and 25 are loaded into 2% agarose hydrogels at a concentration of 0.5 mM. The hydrogels have a volume of 0.5 ml and are made in 10 ml scintillation vials. After the hydrogels form, the vials are filled with PBS buffer, pH 7.4, and then imaged in either a 9.4 Tesla MRI machine or a 17.8 Tesla MRI machine (University of Florida). The best TR/TE parameters are selected from calculations using the spin-echo signal equation with respect to the relaxation times and the TR/TE. The TE and TR are chosen such that the signal intensity of the hydrogels loaded with 19b and 25 is lower than or equal to pure agarose hydrogels. These calculations are based on the R1 and R2 of 19b and 25. DTT is added to the scintillation vials to generate a 50 mM concentration of DTT in the vials. The control hydrogels for this experiment consist of hydrogels that contain 50 mM DTT, without 19b or 25. The signal intensity of the gels is measured every hour for 48 hours. The T1 and the T2 of the gels is measured every hour, the T1 is measured using an inversion recovery sequence, for which the sequence parameters will be selected based on the values of R1 and R2 of 19b and 25. The T2 will be measured using a Carr-Purcell-Meiboom-Gill (CPMG) sequence with TEs chosen from the values of R2 for 19b and 25 (Haacke 1999).

[2] = test system: trypsin Dy only detectable construct (cleavable PEG-peptide-dysprosium, FIG. 24)
MMP-9 = MMP-9 (Homo sapiens, UniProt P14780); experiment: Imaging MMP-9 with 40 and 42 in agarose gels (MRI); format: biochemical; conditions: agarose hydrogels
MMP-9, sequence (P14780 94-707, species assumed): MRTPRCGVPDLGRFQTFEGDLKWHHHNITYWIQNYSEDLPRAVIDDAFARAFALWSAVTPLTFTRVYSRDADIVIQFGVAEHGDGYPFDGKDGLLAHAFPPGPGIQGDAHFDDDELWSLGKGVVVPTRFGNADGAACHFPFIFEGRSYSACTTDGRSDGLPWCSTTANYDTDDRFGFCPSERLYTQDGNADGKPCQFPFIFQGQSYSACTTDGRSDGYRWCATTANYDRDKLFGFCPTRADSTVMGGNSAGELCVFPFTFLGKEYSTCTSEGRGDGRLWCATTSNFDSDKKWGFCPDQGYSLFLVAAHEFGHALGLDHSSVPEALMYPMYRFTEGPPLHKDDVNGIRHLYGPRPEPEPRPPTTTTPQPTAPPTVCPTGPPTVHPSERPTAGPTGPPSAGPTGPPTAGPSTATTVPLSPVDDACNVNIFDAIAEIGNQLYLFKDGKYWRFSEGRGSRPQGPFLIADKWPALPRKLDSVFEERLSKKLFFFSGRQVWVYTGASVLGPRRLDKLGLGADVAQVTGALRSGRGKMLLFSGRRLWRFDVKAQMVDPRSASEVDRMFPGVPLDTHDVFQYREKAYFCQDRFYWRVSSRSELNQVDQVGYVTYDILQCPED

[3] = Water exchange rate of dysprosium chelate; format: physicochemical
Excerpt: This is a derivative form of DTPA. The chelator molecule of this example is considered a modification of the detectable detectable agent, wherein the chelator molecule has substitutions. The R2 of dysprosium chelates is inversely proportional to the water exchange rate, particularly for macromolecular dysprosium chelates at high field strengths (Vander 2002 and Caravan 2001) The dysprosium chelate detectable construct remainder in 25 has a greater R2 than the dysprosium chelate detectable construct remainder in 19b and also generates a larger change in tissue T2 after cleavage and diffusion away from the polymeric gadolinium detectable construct remainder. The R1 and R2 of 25 is determined using a 600 MHz NMR machine as described in Example 2.

[4] = test system: T1, PEG-Peptide-DTPA-Dy containing MMP-7 substrate peptide-DTPA
T1 sequence: RPLALWRSGCG

[5] = test system: MMP-7 expressing SW480mat xenograft tumors; experiment: In vivo imaging of MMP-7 activity in mouse xenograft tumors (MRI); design: species or system athymic nude mice; conditions: expectation; mice with MMP-7 expressing tumors, 9.4 Tesla
Excerpt: MMP-7 activity is imaged in athymic nude mice which have been given MMP-7 expressing xenograft tumors, using the T2/T1 quenching detectable construct, gadolinium-PEG-RPLALWRSC-dysprosium (46, FIG. 26). This compound contains a reaction region that is the MMP-7 cleavage site, RPLALWRSC, (SEQ ID NO: 2). […] See FIG. 26 for the synthesis of 46.
The resulting tumors are allowed to grow up to a size of 1-2 cm (4-6 weeks). During this period, the mice are imaged at various times points ranging from 3 days to 6 weeks after the injection of the tumor cells, according to the following procedure: after proper anesthetization, a catheter is inserted into the tail vein of the mice, a composition comprising the detectable construct 46 is injected through the catheter and the mice are imaged every hour for 24 hours in a 9.4 Tesla MRI machine (Emory University), measuring the MRI signal intensity, tissue T1 and tissue T2.
The signal intensity and T2 of the MMP-7 expressing tumors is compared against the control tumors. If the signal intensity of the MMP-7 expressing tumors is greater than the controls, then MMP-7 successfully cleaved 46, resulting in an increase in MRJ signal intensity and the imaging of MMP-7. Furthermore, data is obtained relating to the sensitivity of the method to image early tumor activity, as well as ratiometric information relating to tumor growth.

[6] = Imaging DTT with 33 in agarose hydrogels (MRI); conditions: vials not filled with buffer
Description: An experimental procedure similar to that outlined in Example 4 is used to image DTT, except that the hydrogels are loaded with compound 33. The scintillation vials which contain the gels are not filled with buffer. This ensured that the cleaved dysprosium remains in the gel and that changes in T2 and signal intensity are due to changes in the rotational correlation time of dysprosium. The DTT is directly added to hydrogels as a concentrated solution. The gels are analyzed in a manner similar to Example 4. The control for this experiment is agarose hydrogels that just contain DTT. […] Problems with synthesis of 33 due to its high polydispersity may result from the free radical polymerization used to generate 28. This problem can be solved by using atom transfer radical polymerization (ATRP) to synthesize 28, using a protected methacrylic acid monomer and an (ATRP) initiator with a functional handle.

[7] = R1 and R2 relaxivity from water T1/T2 measurements by NMR; format: physicochemical; conditions: for R1: deuterium oxide, Unity-600 MHz, 25±0.1° C.
Description: The R2 and R1 of 19a and 18a were calculated to show cleavage of the T2/T1 quenching detectable construct 19a generated a large enough change in R2 to allow for enzyme detection. The compound 19a represents an intact T2/T1 quenching detectable construct and the compound 18a represents a polymeric gadolinium detectable construct remainder resulting from cleavage of the reaction region. The R1 and R2 of 19a and 18a were measured in deuterium oxide in a Unity-600 MHz (Varian, Inc.) at 25±0.1° C. T1 and T2 measurements of water relaxation times were measured at various concentrations of 19a and 18a, and a plot of 1/T1 and 1/T2 was made against the concentration; the relaxivities R1 and R2 were determined by the slope of this graph using equation 1 (Caravan 1991), [formula] where 1/T1 is the relaxation rate of the water proton induced by the paramagnetic and diamagnetic species present in solution, and 1/T1 (diamagnetic) is the relaxation rate in the absence of the paramagnetic species. R1 and R2 of 18a were calculated to be 3.34 mM^−1s^− and 6.8 mM^−1s^−1 and the R1 and R2 of 19a were 4.0 mM^−1s^−1 and 21.77 mM^−1s^−1 (see FIG. 19).

[8] = Diffusion coefficient in water (literature); format: physicochemical
Excerpt: Another example of a detectable construct of the present invention is shown in FIG. 15, wherein the detectable construct comprises a first detectable agent, comprising a metal ion and a chelator, covalently bonded to a linking region comprising PEG(polyethylene glycol) MW 80 kD, which is covalently bonded to a reaction region that is a substrate that can be cleaved by an enzyme or chemical process, which is covalently bonded to a second detectable agent comprising a chelator and a metal ion. In this particular example, the first detectable agent is Gadolinium associated with the chelator DTPA, and the second detectable agent is Dysprosium associated with the chelator DTPA. This detectable construct can be used in a method based upon the counteracting effects of T1 and T2 contrast agents on MRI signal intensity. Gadolinium is the T1 contrast agent and dysprosium is the T2 contrast agent. The dysprosium detectable agent is connected to the PEG chain through a cleavable linkage, such as a disulfide bond or an enzyme cleavable peptide linkage. Cleavage of 3a generates a low molecular weight dysprosium detectable construct remainder (4) and a high molecular weight PEG gadolinium detectable construct remainder. […]
At present, tumors can only be detected after they reach mm-cm dimensions. […]

[9] = in water, cited from earlier work
[10] = listed as DTPA-Dy detectable construct remainder

Substance: Gadolinium-PEG-S—S-Dysprosium [Compound 19b]
MRI signal intensity of agarose gels after addition of DTT [1]: increases the signal intensity

Substance: trypsin
water T2 (400 MHz NMR in D2O), construct 16 mg/ml, trypsin 0.025 mg/ml [2]: After adding trypsin, T2 increases by 52.3%

MRI signal intensity on cleavage by MMP-9 (MMP-9): increase in signal intensity
Substance: gadolinium-PEG-Pro-Val-Gly-Leu-Ile-Gly-dysprosium [Compound 40]

Substance: Gadolinium-PEG-S—S-Dysprosium-Diamide [Compound 25]
MRI signal intensity of agarose gels after addition of DTT [1]: increases the signal intensity
water exchange rate τm, times lower than the dysprosium chelate in 19b [3]: 34 times

Substance: MMP-7
T2 signal (NMR in D2O buffer, 37 C, 4.5 hours) [4]: upon treatment of micelles with MMP-7 that the T2 signal increase by over two-fold

Substance: gadolinium-PEG-RPLALWRSC-dysprosium [Compound 46]
MRI signal intensity on cleavage by MMP-7 [5]: increase in MRI signal intensity

Substance: Gadolinium-Poly(Methacrylic Acid)-PEG-S—S-Dysprosium [Compound 33]
MRI signal intensity of agarose gels after addition of DTT [6]: increases the signal intensity

Substance: Thiol-PEG-DTPA-Gd [Compound 18a]
R1 [7]: 3.34 mM⁻¹ s⁻¹

ratio of diffusion coefficient to that of PEG 80 kD [8]: 17 fold
ratio of diffusion coefficient to that of PEG 80 kD [8, 10]: roughly 17 fold
Substance: dysprosium-diethylenetriaminepentaacetic (DTPA) [DTPA-dysprosium]
diffusion coefficient Dwater [9]: 3.8×10^−6 cm^2/s
diffusion coefficient Dwater [9, 10]: approximately 3.8×10^−6 cm^2/s

Substance: Gadolinium-PEG-S—S-Dysprosium [Compound 19a]
decrease in R1 between 19a and 18a ([7]; 19a versus 18a): 16.5%
R1 [7]: 4.0 mM⁻¹ s⁻¹

MRI signal intensity on cleavage by MMP-9 (MMP-9): increased signal intensity
Substance: gadolinium-poly(methacrylic acid)-Pro-Val-Gly-Leu-Ile-Gly-dysprosium [Compound 42]
